Measured values from patent publication US20060142291A1, “Use of formaldehyde and formaldehyde-releasing compounds in a composition for controlling mycobacteria” (priority 2004, published 2006).

Key:
Assay in all cases: Activity of bactericidal solutions against mycobacteria (MIC, 7H9 liquid medium, turbidity and streaking on 7H10 agar)
Assay type in all cases: cell-based
M. terrae ATCC 15755 = settings: ATCC 15755, 37° C., 3 weeks incubation, % by weight
[1] = tested on: M. immunogenum ATCC 700505; settings: 3 weeks incubation, % by weight; for Activity at MIC (%) M. immunogenum (28° C.): ATCC 700505, 28° C.; for Activity at MIC (%) M. immunogenum (37° C.): ATCC 700505, 37° C.
M. chelonae ATCC 19236 = settings: ATCC 19236, 37° C., 3 weeks incubation, % by weight
M. chelonae ATCC 35725 = settings: for Activity at MIC (%) M. chelonae (28° C.): ATCC 35725, 28° C., 3 weeks incubation, % by weight

Compound	Activity at MIC (%) M. terrae (37° C.) (M. terrae ATCC 15755)	Activity at MIC (%) M. immunogenum (28° C.) [1]	Activity at MIC (%) M. immunogenum (37° C.) [1]	Activity at MIC (%) M. chelonae (37° C.) (M. chelonae ATCC 19236)	Activity at MIC (%) M. chelonae (28° C.) (M. chelonae ATCC 35725)	usage concentration active against M. chelonae (M. chelonae ATCC 35725; strain and temperature not stated)
OCCN1CN(CCO)CN(CCO)C1 [Comparison 1, 2,2′,2″-(hexahydro-1,3,5-triazine-1,3,5-triyl)triethanol]	0.3%	≦0.075%	≦0.075%	0.3%	0.3%	0.3 % by weight
CCCCCCCCn1sccc1=O [Comparison 2, 2-octyl-3(2H)-isothiazol-3-one]	>0.3%	>0.3%	>0.3%	>0.3%	>0.3%	
